Measurements reported in patent publication US20230286998A1, “SUCCINATE SALTS OF OCTAHYDROTHIENOQUINOLINE COMPOUND AND CRYSTALS THEREOF” (KISSEI PHARMACEUTICAL CO., LTD., priority 2020, published 2023).
“Also recorded” adds a separate entry of the source. Where a name gives a salt, the structure may show the parent alone.

Tests used:
Type in all cases: physicochemical
[1] = Water adsorption and desorption test (IGA-Sorp); conditions: 25° C.
Experimental: The water adsorption and desorption behaviors of the Form I crystal of the salt (A-1), the crystal of hydrochloride salt of the compound (B) and the crystal of sebacate salt of the compound (B) were measured using IGA-Sorp (manufactured by HIDEN isochema) under the following conditions. The water adsorption and desorption isotherm of the Form I crystal of the salt (A-1) is shown in FIG. 11, and the water adsorption and desorption isotherm of hydrochloride salt of the compound (B) is shown in FIG. 12.
• Form I crystal of salt (A-1): 14.7 mg • Crystal of hydrochloride salt of compound (B): 10.4 mg • Crystal of sebacate salt of compound (B): 13.2 mg
Each specimen was placed in a water adsorption and desorption measurement device. The temperature and the humidity were set to 25° C./40% RH or 50% RH, and equilibration was conducted for 60 minutes or more to stabilize the mass.
The mass of each specimen subjected to mass equilibration was continuously measured while changing the relative humidity at every 5% RH in adsorption and desorption.
The mass % was expressed as a mass percentage of a mass change before and after adsorption (or desorption) based on a dry sample.

[2] = Stability Test 2: storage under an open condition at 40° C. and 75% relative humidity (powder X-ray diffraction, HPLC related substances, appearance); conditions: 2 months; for Increased Amount of related substance: HPLC area normalization; for Change of Crystal form: powder X-ray diffraction
Experimental: (§1) The Form I crystal of the salt (A-1), the Form I crystal of the salt (A-2), the crystal of hydrochloride salt of the compound (B), the crystal of sebacate salt of the compound (B) and the crystal of adipate salt were stored under an open condition at 40° C. and 75% relative humidity, and the physical stability and the chemical stability of each crystal form were examined. The powder X-ray diffractions of the samples at the start of the specimens and 2 months later were measured in the same manner as in Test Example 1, and the physical stability of the crystal forms and the amounts of the related substances were measured using the following HPLC measurement conditions, thereby observing the chemical stability. At the same time, changes in appearance were also observed.
(§2) • Detector: Ultraviolet and visible absorptiometer/wavelength: 225 nm • Column: L-column2 ODS, 3 μm, 4.6×150 mm (manufactured by Chemicals Evaluation and Research Institute, Japan) • Column temperature: constant temperature around 30° C. • Flow rate: 1.0 mL/min • Mobile phase A: a solution (pH 6.9) in which potassium dihydrogen phosphate and dipotassium hydrogen phosphate are mixed in water so as to be each 10 mmol/L • Mobile phase B: acetonitrile • Mobile phase ratios • 0 to 25 minutes: mobile phase A/mobile phase B=79/21 • 25 to 45 minutes: mobile phase A/mobile phase B=79/21 to 25/75 (Gradient) • 45 to 50 minutes: mobile phase A/mobile phase B=25/75 • Injection volume: 5 μL • Sample cooler: 4° C. • Dissolution solvent: A mixed solution prepared by adding 20 parts of acetonitrile to 80 parts of a 10 mmol/L potassium dihydrogen phosphate aqueous solution adjusted to pH 3. • Sample solution: A liquid obtained by dissolving the specimen in the dissolution solvent and adjusting to about 1.0 mg/mL as the compound (B).
(§3) Excluding the peaks derived from the blank, the peak areas of the respective peaks were measured by an automatic integration method, and the values thereof were determined by an area normalization method.

[3] = Stability Test 1: storage under an open condition at 60° C. (powder X-ray diffraction, HPLC related substances, appearance); conditions: 2 months; for Increased Amount of related substance: HPLC area normalization; for Change of Crystal form: powder X-ray diffraction
Experimental: as §1, with “hydrochloric acid” for “hydrochloride salt”, “60° C.,” for “40° C. and 75% relative humidity,”
as §2, with “a 20” for “a 10”
as §3

[4] = listed as Forn I crystal of the salt (A-2), Monosuccinate Salt

SMILES	Change of water amount at adsorption ([1]; 50-90% RH, based on a dry sample) [mass %]	Change of water amount at desorption ([1]; 90-0% RH, based on a dry sample) [mass %]	hygroscopicity (in words) ([1]; water adsorption and desorption)	chemical stability (in words) [2]	Increased Amount of related substance [2]	Appearance ([2]; Sesquisuccinate Monohydrate)	Change of Crystal form ([2]; Sesquisuccinate Monohydrate)	chemical stability (in words) [3]	Increased Amount of related substance [3]	Appearance ([3]; Sesquisuccinate Monohydrate)	Change of Crystal form ([3]; Sesquisuccinate Monohydrate)	Appearance ([2]; Monosuccinate Salt)	Change of Crystal form ([2]; Monosuccinate Salt)	Appearance ([3]; Monosuccinate Salt)	Appearance [3, 4]	Change of Crystal form ([3]; Monosuccinate Salt)	Change of Crystal form [3, 4]
CCCN(C(=O)NCCN(C)C)C(=O)[C@@H]1C[C@@H]2Cc3c(sc(N)c3C#N)C[C@H]2N(C)C1 [Form I crystal of the salt (A-1), 1-{[(4aR,6R,8aR)-2-Amino-3-cyano-8-methyl-4,4a,5,6,7,8,8a,9-octahydrothieno[3,2-g]quinolin-6-yl]carbonyl}-3-[2-(dimethylamino)ethyl]-1-propylurea Sesquisuccinate Monohydrate]	0.3	0.8	does not exhibit hygroscopicity	chemically stable	+0.01%	no change in appearance; also recorded: No change in white	No change in crystal form	chemically stable	No increase	almost no change in appearance; also recorded: White (A slight coloration	No change in crystal form						
CCCN(C(=O)NCCN(C)C)C(=O)[C@@H]1C[C@@H]2Cc3c(sc(N)c3C#N)C[C@H]2N(C)C1.O=C(O)CCC(=O)O [Form I crystal of the salt (A-2), 1-{[(4aR,6R,8aR)-2-Amino-3-cyano-8-methyl-4,4a,5,6,7,8,8a,9-octahydrothieno[3,2-g]quinolin-6-yl]carbonyl}-3-[2-(dimethylamino)ethyl]-1-propylurea Monosuccinate Salt]				chemically stable	No increase			chemically stable	−0.05%			no change in appearance; also recorded: No change in white	No change in crystal form	almost no change in appearance	White (A slight coloration	No change in crystal form	No change
